Where two headings read alike, the source gives them in different places.
Columns and labels:
anti-Chlamydia abzymes [1] = assay type: biochemical, human
Method: (§1) For chemical inactivation, a diluent solution was divided into two portions. In one portion, an abzyme inhibitor was added. The following abzyme inhibitors were used DMSO, 0.1-10%; sodium azide, 10^−5-10^−3M; catechins, 10^−6-10^−3M; ketek, […]; lactobacilli culture, 1 μM-1 mM; ascorbic acid, 10^−4-10^−3M; acetyl salicylic acid, 10^−4-10^−3M.
(§2) The serum sample was split in two aliquots and one aliquot was diluted by solution containing the abzyme inhibitor, the second aliquot was diluted by the control solution. The aliquots were then tested in the same fashion.
ELISA assays were performed using Medac materials and reagents, which were used in accordance with the manufacturers instructions.
Briefly, serum samples from patients were treated as described above. 50 μl of sample diluent was pipetted into microtitre well Al as blank, and 50 μl of the negative control, Positive Control and the diluted patients' samples were pipetted into other microtitre wells. The microplate wells were incubated for 60 min (±5 min) at 37° C. (±1° C.) in a humid chamber and then washed three times with 200 μl wash buffer per well. 50 μl of Conjugate was then added to each well and the microplate wells incubated again for 60 min (±5 min) at 37° C. (±1° C.) in a humid chamber and then washed. 50 μl of TMB-Substrate, was added to each well and the microplate wells incubated for 30 min (±2 min) at 37° C. (±1° C.) in a humid chamber. The reaction was stopped by adding 100 μl of Stop Solution, to each well.
Photometric reading was performed using a plate reader at 450 nm (ref. 620-650 nm) within 15 min after adding the Stop Solution.
To calculate the results, the OD value of the blank (well A1) was subtracted from all other OD values. […] Cut-off=mean OD value of the Negative Control+0.380. Grey zone=Cut-off±10%

anti-Chlamydia abzymes [2] = assay type: biochemical, human; remark: listed apart in the source
Method: as §1, §2
Lipid peroxidation was assessed as a level of MDA concentration which was measured by spectrophotometric method [Draper, H. H. et al Free Radic. Biol. Med. (1993) 15, 353]. This method is based on the formation of a coloured product when malondialdehyde reacts with thiobarbituric acid. Briefly, the level of abzymes in a sample was determined as follows: Samples of sera were diluted 1:1 by 0.05M acetate buffer pH 4.0 to make the final pH of these samples between 5.6-5.8. 990 μl of the diluted serum was mixed with 10 μl of the commercial live ovine Chlamydia vaccine (Intervet). Samples were incubated overnight (12-16 hours) at 37° C. 250 μl of 40% trichloroacetic acid and 250 μl of 1 mM 2-thiobarbituric acid was added to each sample. All samples were placed in a water bath and boiled for 30 minutes. Samples were cooled down and centrifuged at 3,000 g for 10 minutes. The supernatants were collected and their absorption measured at λ 525 nm to determine the concentration of malondialdehydes (MDA), which are products of lipid peroxidation.

[3] = patient serum, abzyme inhibitor added to diluent

| Compound | Inhibition of abzymes ability to cause: Damage of Chlamydia pneumoniae antigen, in ELISA (anti-Chlamydia abzymes [1]; [3]) | Inhibition of abzymes ability to cause: Serum lipid peroxidation, in MDA assay (anti-Chlamydia abzymes [2]; [3]) | Inhibition of abzymes ability to cause: Damage of Chlamydia pneumoniae antigen, in ELISA (anti-Chlamydia abzymes [1]) | Inhibition of abzymes ability to cause: Serum lipid peroxidation, in MDA assay (anti-Chlamydia abzymes [2]) |
| --- | --- | --- | --- | --- |
| C[S+](C)[O-] [DMSO] | Positive | Positive |  |  |
| Cc1c(O)cc2c(c1C)O[C@](C)(CCC[C@H](C)CCC[C@H](C)CCCC(C)C)CC2 [(+) y-Tocopherol] |  |  | Negative | Negative |
| CC1=C(/C=C/C(C)=C/C=C/C(C)=C/C=C/C=C(C)/C=C/C=C(C)/C=C/C2=C(C)CCCC2(C)C)C(C)(C)CCC1 [β-Carotene] |  |  | Negative | Negative |
| Cc1c(C)c2c(c(C)c1O)CC[C@@](C)(CCC[C@H](C)CCC[C@H](C)CCCC(C)C)O2 [(+) α-Tocopherol] | Negative | Negative |  |  |
| CC[C@H]1OC(=O)[C@H](C)C(=O)[C@H](C)[C@@H](O[C@@H]2O[C@H](C)C[C@H](N(C)C)[C@H]2O)[C@](C)(OC)C[C@@H](C)C(=O)[C@H](C)[C@H]2N(CCCCn3cnc(-c4cccnc4)c3)C(=O)O[C@]12C [Telithromycin, Ketek, Telithromycin] | Positive | Positive |  |  |
| PMS |  |  | Negative | Negative |
| CC(C)=CCC/C(C)=C/C=C/C(C)=C/C=C/C(C)=C/C=C/C=C(C)/C=C/C=C(C)/C=C/C=C(\C)CCC=C(C)C [Lycopene] | Negative | Negative |  |  |
| O=C1O[C@H]([C@@H](O)CO)C(O)=C1O [Ascorbic acid] | Positive | Positive |  |  |
| O=C(O)c1ccccc1 [Benzoic acid] |  |  | Negative | Negative |
| CC(=O)Oc1ccccc1C(=O)O [Acetyl salicylic acid] |  |  | Positive | Positive |
| O=C(O)CN(CCOCCOCCN(CC(=O)O)CC(=O)O)CC(=O)O [EGTA] | Positive |  |  |  |
| OC[C@@H](O)[C@@H](O)[C@H](O)[C@H](O)CO [D-Mannitol] | Negative | Negative |  |  |
| O=C(O)CN(CCN(CC(=O)O)CC(=O)O)CC(=O)O [EDTA] |  |  | Positive | Positive |
| Haemoglobin |  |  | Positive | Positive |
| (+) Catechin gallate | Positive | Positive |  |  |

Source: patent US7939275B2, “Methods for detection of chlamydia in samples” (priority 2005, dated 2011)
